# According to ChEMBL document CHEMBL3091293, “The synthesis and biodistribution of [(11)C]metformin as a PET probe to study hepatobiliary transport mediated by the multi-drug and toxin extrusion transporter 1 (MATE1) in vivo” (Bioorg Med Chem, 2013):
# Tests used:
# Type in all cases: ADME, organism-based
# Liver [1] = test: Drug uptake in liver of ddY mouse at 127 +/- 35 MBq/kg, iv measured up to 6 to 7 mins by microPET image analysis in presence of MATE1 inhibitor pyrimethamine; conditions: in vivo
# Kidney [2] = test: Drug uptake in kidney of ddY mouse at 127 +/- 35 MBq/kg, iv measured up to 4.5 mins by microPET image analysis in presence of MATE1 inhibitor pyrimethamine; conditions: in vivo, 0.075 h
# [3] = Drug uptake in urinary bladder of ddY mouse at 127 +/- 35 MBq/kg, iv measured up to 4.5 mins by microPET image analysis; conditions: in vivo, 0.075 h
# Kidney [4] = test: Drug uptake in kidney of ddY mouse at 127 +/- 35 MBq/kg, iv measured up to 4.5 mins by microPET image analysis; conditions: in vivo, 0.075 h
# Mus musculus [5] = test: Biodistribution in remaining body parts of ddY mouse at 5.6 +/- 2.1 MBq, iv measured per gram of tissue at 45 mins by gamma-ray counting analysis; conditions: in vivo, 0.75 h
# Mus musculus [6] = test: Biodistribution in remaining body parts of ddY mouse at 5.6 +/- 2.1 MBq, iv measured per gram of tissue at 15 mins by gamma-ray counting analysis; conditions: in vivo, 0.25 h
# Mus musculus [7] = test: Biodistribution in urinary bladder of ddY mouse at 14.6 +/- 2.1 MBq, iv measured per gram of tissue at 27.5 mins by PET image analysis; conditions: in vivo
# Liver [8] = test: Biodistribution in liver of ddY mouse at 14.6 +/- 2.1 MBq, iv measured per gram of tissue at 27.5 mins by PET image analysis; conditions: in vivo
# Liver [9] = test: Biodistribution in liver of ddY mouse at 14.6 +/- 2.1 MBq, iv measured per gram of tissue at 14 mins by PET image analysis; conditions: in vivo
# Mus musculus [10] = test: Biodistribution in large intestine wall of ddY mouse at 5.6 +/- 2.1 MBq, iv measured per gram of tissue at 90 mins by gamma-ray counting analysis; conditions: in vivo, 1.5 h
# Lung [11] = test: Biodistribution in lung of ddY mouse at 5.6 +/- 2.1 MBq, iv measured per gram of tissue at 90 mins by gamma-ray counting analysis; conditions: in vivo, 1.5 h
# Liver [12] = test: Biodistribution in liver of ddY mouse at 5.6 +/- 2.1 MBq, iv measured per gram of tissue at 90 mins by gamma-ray counting analysis; conditions: in vivo, 1.5 h
# Thyroid gland [13] = test: Biodistribution in thyroid of ddY mouse at 5.6 +/- 2.1 MBq, iv measured per gram of tissue at 60 mins by gamma-ray counting analysis; conditions: in vivo, 1 h
# Spleen [14] = test: Biodistribution in spleen of ddY mouse at 5.6 +/- 2.1 MBq, iv measured per gram of tissue at 60 mins by gamma-ray counting analysis; conditions: in vivo, 1 h
# Kidney [15] = test: Biodistribution in kidney of ddY mouse at 5.6 +/- 2.1 MBq, iv measured per gram of tissue at 60 mins by gamma-ray counting analysis; conditions: in vivo, 1 h
# Liver [16] = test: Biodistribution in liver of ddY mouse at 5.6 +/- 2.1 MBq, iv measured per gram of tissue at 60 mins by gamma-ray counting analysis; conditions: in vivo, 1 h
# Mus musculus [17] = test: Biodistribution in stomach wall of ddY mouse at 5.6 +/- 2.1 MBq, iv measured per gram of tissue at 45 mins by gamma-ray counting analysis; conditions: in vivo, 0.75 h
# Lung [18] = test: Biodistribution in lung of ddY mouse at 5.6 +/- 2.1 MBq, iv measured per gram of tissue at 45 mins by gamma-ray counting analysis; conditions: in vivo, 0.75 h
# Kidney [19] = test: Biodistribution in kidney of ddY mouse at 5.6 +/- 2.1 MBq, iv measured per gram of tissue at 45 mins by gamma-ray counting analysis; conditions: in vivo, 0.75 h
# Liver [20] = test: Biodistribution in liver of ddY mouse at 5.6 +/- 2.1 MBq, iv measured per gram of tissue at 45 mins by gamma-ray counting analysis; conditions: in vivo, 0.75 h
# Pancreas = test: Biodistribution in pancreas of ddY mouse at 5.6 +/- 2.1 MBq, iv measured per gram of tissue at 35 mins by gamma-ray counting analysis; conditions: in vivo
# Thyroid gland [21] = test: Biodistribution in thyroid of ddY mouse at 5.6 +/- 2.1 MBq, iv measured per gram of tissue at 35 mins by gamma-ray counting analysis; conditions: in vivo
# Mus musculus [22] = test: Biodistribution in small intestine wall of ddY mouse at 5.6 +/- 2.1 MBq, iv measured per gram of tissue at 35 mins by gamma-ray counting analysis; conditions: in vivo
# Mus musculus [23] = test: Biodistribution in stomach wall of ddY mouse at 5.6 +/- 2.1 MBq, iv measured per gram of tissue at 35 mins by gamma-ray counting analysis; conditions: in vivo
# Mus musculus [24] = test: Biodistribution in heart wall of ddY mouse at 5.6 +/- 2.1 MBq, iv measured per gram of tissue at 35 mins by gamma-ray counting analysis; conditions: in vivo
# Lung [25] = test: Biodistribution in lung of ddY mouse at 5.6 +/- 2.1 MBq, iv measured per gram of tissue at 35 mins by gamma-ray counting analysis; conditions: in vivo
# Liver [26] = test: Biodistribution in liver of ddY mouse at 5.6 +/- 2.1 MBq, iv measured per gram of tissue at 35 mins by gamma-ray counting analysis; conditions: in vivo
# Mus musculus [27] = test: Biodistribution in urinary bladder/urine of ddY mouse at 5.6 +/- 2.1 MBq, iv measured per gram of tissue at 30 mins by gamma-ray counting analysis; conditions: in vivo, 0.5 h
# Thyroid gland [28] = test: Biodistribution in thyroid of ddY mouse at 5.6 +/- 2.1 MBq, iv measured per gram of tissue at 30 mins by gamma-ray counting analysis; conditions: in vivo, 0.5 h
# Mus musculus [29] = test: Biodistribution in large intestine wall of ddY mouse at 5.6 +/- 2.1 MBq, iv measured per gram of tissue at 30 mins by gamma-ray counting analysis; conditions: in vivo, 0.5 h
# Mus musculus [30] = test: Biodistribution in small intestine wall of ddY mouse at 5.6 +/- 2.1 MBq, iv measured per gram of tissue at 30 mins by gamma-ray counting analysis; conditions: in vivo, 0.5 h
# Mus musculus [31] = test: Biodistribution in heart wall of ddY mouse at 5.6 +/- 2.1 MBq, iv measured per gram of tissue at 30 mins by gamma-ray counting analysis; conditions: in vivo, 0.5 h
# Spleen [32] = test: Biodistribution in spleen of ddY mouse at 5.6 +/- 2.1 MBq, iv measured per gram of tissue at 30 mins by gamma-ray counting analysis; conditions: in vivo, 0.5 h
# Kidney [33] = test: Biodistribution in kidney of ddY mouse at 5.6 +/- 2.1 MBq, iv measured per gram of tissue at 30 mins by gamma-ray counting analysis; conditions: in vivo, 0.5 h
# Mus musculus [34] = test: Biodistribution in urinary bladder/urine of ddY mouse at 5.6 +/- 2.1 MBq, iv measured per gram of tissue at 15 mins by gamma-ray counting analysis; conditions: in vivo, 0.25 h
# Lung [35] = test: Biodistribution in lung of ddY mouse at 5.6 +/- 2.1 MBq, iv measured per gram of tissue at 15 mins by gamma-ray counting analysis; conditions: in vivo, 0.25 h
# Liver [36] = test: Metabolic stability in liver of mouse at 5 +/- 2.3 MBq/kg, iv measured until 30 to 60 mins by HPLC analysis in presence of MATE1 inhibitor pyrimethamine; conditions: in vivo
smiles,measurement,setting,value
CN([11CH3])C(=N)NC(=N)N,Drug uptake,Liver [1],Active
same,Drug uptake,Kidney [2],Active
same,Drug uptake,[3],Active
same,Drug uptake,Kidney [4],Active
same,Drug uptake,Mus musculus [5],17.28 %ID
same,Drug uptake,Mus musculus [6],54.581 %ID
same,Drug uptake,Mus musculus [7],66.041 %ID
same,Drug uptake,Liver [8],1.033 %ID
same,Drug uptake,Liver [9],1.796 %ID
same,Drug uptake,Mus musculus [10],0.24 %ID
same,Drug uptake,Lung [11],0.128 %ID
same,Drug uptake,Liver [12],1.288 %ID
same,Drug uptake,Thyroid gland [13],0.005 %ID
same,Drug uptake,Spleen [14],0.139 %ID
same,Drug uptake,Kidney [15],1.068 %ID
same,Drug uptake,Liver [16],1.631 %ID
same,Drug uptake,Mus musculus [17],0.08 %ID
same,Drug uptake,Lung [18],0.135 %ID
same,Drug uptake,Kidney [19],0.165 %ID
same,Drug uptake,Liver [20],0.827 %ID
same,Drug uptake,Pancreas,0.196 %ID
same,Drug uptake,Thyroid gland [21],0.003 %ID
same,Drug uptake,Mus musculus [22],2.06 %ID
same,Drug uptake,Mus musculus [23],0.091 %ID
same,Drug uptake,Mus musculus [24],0.049 %ID
same,Drug uptake,Lung [25],0.119 %ID
same,Drug uptake,Liver [26],1.478 %ID
same,Drug uptake,Mus musculus [27],73.314 %ID
same,Drug uptake,Thyroid gland [28],0.009 %ID
same,Drug uptake,Mus musculus [29],0.352 %ID
same,Drug uptake,Mus musculus [30],3.165 %ID
same,Drug uptake,Mus musculus [31],0.044 %ID
same,Drug uptake,Spleen [32],0.162 %ID
same,Drug uptake,Kidney [33],1.111 %ID
same,Drug uptake,Mus musculus [34],35.204 %ID
same,Drug uptake,Lung [35],0.254 %ID
same,Stability,Liver [36],Stable
